The subject of data set [1] is A549. Description: Antiproliferative activity against human A549 cells assessed as cell growth at 10 uM incubated for 72 hrs by MTT assay relative to untreated control. It is filed as functional. Conditions: A549, 72 h, read-out: Activity. (Formazan colour is commonly taken as a measure of viable cells.)
A short description of data set [2]: Antiproliferative activity against human IGR-39 cells assessed as cell growth at 10 uM incubated for 72 hrs by MTT assay relative to untreated control. Type of data set: functional. Conditions: IGR-39, 72 h, read-out: Activity.
In data set [3] the test system is U-87 MG. Description: Antiproliferative activity against human U87 cells assessed as cell growth at 10 uM incubated for 72 hrs by MTT assay relative to untreated control. It is filed as functional, U-87MG ATCC. The conditions noted are these: read-out: Activity.
The test system of data set [4] is MDA-MB-231. Description: Antiproliferative activity against human MDA-MB-231 cells assessed as cell growth at 10 uM incubated for 72 hrs by MTT assay relative to untreated control. It is filed as functional. The conditions noted are these: MDA-MB-231, 72 h, read-out: Activity.
The subject of data set [5] is MCF7. The experiment in a line: Antiproliferative activity against human MCF7 cells assessed as cell growth at 10 uM incubated for 72 hrs by MTT assay relative to untreated control. The conditions noted are these: MCF7, 72 h, read-out: Activity. It is filed as functional.
For data set [6], the system named is BT-474. Description: Antiproliferative activity against human BT474 cells assessed as cell growth at 10 uM incubated for 72 hrs by MTT assay relative to untreated control. It is filed as functional. The conditions noted are these: BT-474, 72 h, read-out: Activity.
Data set [7] concerns BXPC-3. The experiment in a line: Antiproliferative activity against human BxPC3 cells assessed as cell growth at 10 uM incubated for 72 hrs by MTT assay relative to untreated control. Type of data set: functional. The conditions noted are these: BXPC-3, 72 h, read-out: Activity.
Data set [8] relates to SK-OV-3. The experiment in a line: Antiproliferative activity against human SKOV3 cells assessed as cell growth at 10 uM incubated for 72 hrs by MTT assay relative to untreated control. It is filed as functional. The conditions noted are these: SK-OV-3, 72 h, read-out: Activity.
Data set [9] deals with NCI-H1299. The experiment in a line: Antiproliferative activity against human NCI-H1299 cells assessed as cell growth at 10 uM incubated for 72 hrs by MTT assay relative to untreated control. Type of data set: functional. Conditions: NCI-H1299, 72 h, read-out: Activity.
A short description of data set [10]: Antiproliferative activity against human NHFB cells assessed as cell growth at 10 uM incubated for 72 hrs by MTT assay relative to untreated control. It is filed as cell-based. The conditions noted are these: read-out: Activity.
The subject of data set [11] is A549. The experiment in a line: Antiproliferative activity against human A549 cells assessed as reduction in cell growth incubated for 72 hrs by MTT assay. Type of data set: functional, cell-based. Conditions: A549, 72 h.
Data set [12] in a line: Antiproliferative activity against human IGR-39 cells assessed as reduction in cell growth incubated for 72 hrs by MTT assay. Type of data set: functional, cell-based. Conditions: IGR-39, 72 h.
The subject of data set [13] is U-87 MG. Description: Antiproliferative activity against human U87 cells assessed as reduction in cell growth incubated for 72 hrs by MTT assay. Type of data set: functional, cell-based, U-87MG ATCC.
Data set [14] concerns MCF7. Description: Antiproliferative activity against human MCF7 cells assessed as reduction in cell growth incubated for 72 hrs by MTT assay. Type of data set: functional, cell-based. Conditions: MCF7, 72 h.
Data set [15] deals with BXPC-3. Description: Antiproliferative activity against human BxPC3 cells assessed as reduction in cell growth incubated for 72 hrs by MTT assay. It is filed as functional, cell-based. Conditions: BXPC-3, 72 h.
The nature of data set [16]: Antiproliferative activity against human NHFB cells assessed as reduction in cell growth incubated for 72 hrs by MTT assay. Type of data set: cell-based.
In data set [17] the test system is A549. Description: Induction of apoptosis in human A549 cells at 0.5 times antiproliferative EC50 incubated for 72 hrs by Hoechst 33342 and propidium iodide staining based inverted fluorescent microscopy relative to untreated control. Type of data set: functional.
Data set [18] can be described thus: Induction of apoptosis in human IGR-39 cells at 0.5 times antiproliferative EC50 incubated for 72 hrs by Hoechst 33342 and propidium iodide staining based inverted fluorescent microscopy relative to untreated control. It is filed as functional.
Data set [19] deals with U-87 MG. Description: Induction of apoptosis in human U87 cells at 0.5 times antiproliferative EC50 incubated for 72 hrs by Hoechst 33342 and propidium iodide staining based inverted fluorescent microscopy relative to untreated control. Type of data set: functional, U-87MG ATCC.
In data set [20] the test system is A549. Description: Induction of necrosis in human A549 cells at 0.5 times antiproliferative EC50 incubated for 72 hrs by Hoechst 33342 and propidium iodide staining based inverted fluorescent microscopy relative to untreated control. It is filed as functional.
Data set [21] in a line: Induction of necrosis in human IGR-39 cells at 0.5 times antiproliferative EC50 incubated for 72 hrs by Hoechst 33342 and propidium iodide staining based inverted fluorescent microscopy relative to untreated control. Type of data set: functional.
For data set [22], the system named is U-87 MG. The experiment in a line: Induction of necrosis in human U87 cells at 0.5 times antiproliferative EC50 incubated for 72 hrs by Hoechst 33342 and propidium iodide staining based inverted fluorescent microscopy relative to untreated control. It is filed as functional, U-87MG ATCC.
Data set [23] concerns BT-474. The experiment in a line: Antiproliferative activity against human BT474 cells assessed as reduction in cell growth incubated for 72 hrs by MTT assay. Type of data set: functional, cell-based. The conditions noted are these: BT-474, 72 h.
Data set [24] concerns SK-OV-3. Description: Antiproliferative activity against human SKOV3 cells assessed as reduction in cell growth incubated for 72 hrs by MTT assay. Type of data set: functional, cell-based. Conditions: SK-OV-3, 72 h.
The test system of data set [25] is NCI-H1299. Description: Antiproliferative activity against human NCI-H1299 cells assessed as reduction in cell growth incubated for 72 hrs by MTT assay. Conditions: NCI-H1299, 72 h. It is filed as functional, cell-based.

What is called EC50 is the concentration needed to bring the measured effect to its halfway point.

Bounds are passed on as bounds.

On to `COc1ccc(C2CC(c3ccc4ccccc4c3)=NN2C2=NC(=O)/C(=C3/C(=O)Nc4ccc(C)cc43)S2)cc1` (stereo unspecified), for which the growth at 10 µM was found to be 6.21% in [1]; 0.46% in [2]; 14.2% in [3]; 10.8% in [4]; 4.81% in data set [5]; 40.2% in data set [6]. In addition, the growth at 10 µM was found to be 5.02% in [7], 66.6% in [8] and 19.3% in data set [9]. Further, the viability at 72 h, 10 µM in data set [10] was 11.8%. Further, the EC50 in data set [11] came to 180 nM; in data set [12], 140 nM; in data set [13], 230 nM; in data set [14], 310 nM; in data set [15] it was 100 nM; in data set [16] it was 150 nM. Moreover, the Activity in [17] is 13.5 - 27%; in data set [18] it was 13.5 - 27%; in data set [19], 13.5 - 27%; in data set [20], below 1%; in [21] it was below 1%; in data set [22] it was below 1%.

Regarding `COc1ccc(C2CC(c3ccc4ccccc4c3)=NN2C2=NC(=O)/C(=C3/C(=O)Nc4ccc(Cl)cc43)S2)cc1` (stereo unspecified), the growth at 10 µM in [1] was 3.84%; in data set [2], 1.3%; in data set [3], 1.59%; in [4] it was 6.87%; in data set [5] it was 3.81%; in [6], 24.2%. Further, the growth at 10 µM in data set [7] stood at 5.62%; in data set [8], 6.69%; in data set [9], 9.76%. In [10], the viability at 72 h, 10 µM was determined as 14.4%. Also, the EC50 amounted to 340 nM in data set [11]; 330 nM in data set [12]; 380 nM in data set [13]; 70 nM in data set [14]; 90 nM in [23]; 60 nM in data set [15]. Also, the EC50 in data set [24] is 60 nM; in data set [25] it was 10 nM. For the same compound, the Activity is reported as 13.5 - 27% in [17]; 13.5 - 27% in data set [18]; 13.5 - 27% in data set [19]; below 1% in [20]; below 1% in data set [21]; below 1% in [22].

(Values after ChEMBL document CHEMBL4339221, “Investigating the Anticancer Activity of Isatin/Dihydropyrazole Hybrids” (ACS Med Chem Lett, 2019).)
